Data from patent US9539260B2, “Dihydro-benzo-oxazine and dihydro-pyrido-oxazine derivatives” (Novartis AG, priority 2012, dated 2017).

How the values were obtained:
PI3K alpha = PI3K alpha (Homo sapiens (Human), UniProt P42336); experiment: Enzymatic PI3K alpha isoform inhibition (lipid kinase activity, Kinase-Glo luminescence); assay type: biochemical; conditions: Enzymatic assay
In short: (§1)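 IC50s derive from 4-parameter logistic fits of % inhibition across 8 concentrations (usually 10 to 0.003 μM). Lipid kinase reaction: PI3K (10 nM) plus phosphatidylinositol (5 μg/mL) started with 2 μM ATP, stopped near 50% ATP depletion; leftover ATP quantified by Kinase-Glo luminescence.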

PI3K delta = PI3K delta (Homo sapiens (Human), UniProt O00329); experiment: Enzymatic PI3K delta isoform inhibition (lipid kinase activity, Kinase-Glo luminescence); assay type: biochemical; conditions: Enzymatic assay
In short: as §1

Chain of PI3K delta (O00329 other isoform, or with tags, fused parts or gaps linker GGGGGG): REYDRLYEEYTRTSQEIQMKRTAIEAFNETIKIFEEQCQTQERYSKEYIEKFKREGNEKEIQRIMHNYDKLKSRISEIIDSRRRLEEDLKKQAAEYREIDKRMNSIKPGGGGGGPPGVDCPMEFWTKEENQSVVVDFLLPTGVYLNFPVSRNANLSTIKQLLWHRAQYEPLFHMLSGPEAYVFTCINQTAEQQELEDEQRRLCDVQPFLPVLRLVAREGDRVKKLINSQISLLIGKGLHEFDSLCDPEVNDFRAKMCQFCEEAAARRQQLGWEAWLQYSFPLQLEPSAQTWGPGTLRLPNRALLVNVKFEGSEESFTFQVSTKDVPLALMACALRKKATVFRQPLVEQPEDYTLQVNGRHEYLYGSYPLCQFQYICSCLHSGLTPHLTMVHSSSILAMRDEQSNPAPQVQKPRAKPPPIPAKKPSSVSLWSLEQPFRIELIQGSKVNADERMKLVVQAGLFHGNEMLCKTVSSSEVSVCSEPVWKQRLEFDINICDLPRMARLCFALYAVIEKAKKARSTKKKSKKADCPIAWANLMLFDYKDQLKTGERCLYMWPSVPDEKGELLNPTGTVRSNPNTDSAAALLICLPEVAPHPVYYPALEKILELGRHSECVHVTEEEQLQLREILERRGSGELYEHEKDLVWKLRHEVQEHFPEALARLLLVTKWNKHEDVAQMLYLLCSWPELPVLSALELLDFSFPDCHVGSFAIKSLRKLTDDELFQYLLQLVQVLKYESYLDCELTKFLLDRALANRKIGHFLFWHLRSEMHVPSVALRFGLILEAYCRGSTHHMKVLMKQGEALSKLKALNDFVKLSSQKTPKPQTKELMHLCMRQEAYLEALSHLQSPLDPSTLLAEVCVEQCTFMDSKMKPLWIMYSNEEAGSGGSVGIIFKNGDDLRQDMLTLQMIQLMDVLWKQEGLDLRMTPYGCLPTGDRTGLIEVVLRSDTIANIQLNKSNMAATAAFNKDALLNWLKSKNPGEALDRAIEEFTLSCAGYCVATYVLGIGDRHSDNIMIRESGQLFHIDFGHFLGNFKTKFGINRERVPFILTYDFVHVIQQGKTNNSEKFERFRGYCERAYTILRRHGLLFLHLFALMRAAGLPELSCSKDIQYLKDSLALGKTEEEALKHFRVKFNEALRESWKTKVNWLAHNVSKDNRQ
Chain of PI3K alpha (P42336 other isoform, or with tags, fused parts or gaps): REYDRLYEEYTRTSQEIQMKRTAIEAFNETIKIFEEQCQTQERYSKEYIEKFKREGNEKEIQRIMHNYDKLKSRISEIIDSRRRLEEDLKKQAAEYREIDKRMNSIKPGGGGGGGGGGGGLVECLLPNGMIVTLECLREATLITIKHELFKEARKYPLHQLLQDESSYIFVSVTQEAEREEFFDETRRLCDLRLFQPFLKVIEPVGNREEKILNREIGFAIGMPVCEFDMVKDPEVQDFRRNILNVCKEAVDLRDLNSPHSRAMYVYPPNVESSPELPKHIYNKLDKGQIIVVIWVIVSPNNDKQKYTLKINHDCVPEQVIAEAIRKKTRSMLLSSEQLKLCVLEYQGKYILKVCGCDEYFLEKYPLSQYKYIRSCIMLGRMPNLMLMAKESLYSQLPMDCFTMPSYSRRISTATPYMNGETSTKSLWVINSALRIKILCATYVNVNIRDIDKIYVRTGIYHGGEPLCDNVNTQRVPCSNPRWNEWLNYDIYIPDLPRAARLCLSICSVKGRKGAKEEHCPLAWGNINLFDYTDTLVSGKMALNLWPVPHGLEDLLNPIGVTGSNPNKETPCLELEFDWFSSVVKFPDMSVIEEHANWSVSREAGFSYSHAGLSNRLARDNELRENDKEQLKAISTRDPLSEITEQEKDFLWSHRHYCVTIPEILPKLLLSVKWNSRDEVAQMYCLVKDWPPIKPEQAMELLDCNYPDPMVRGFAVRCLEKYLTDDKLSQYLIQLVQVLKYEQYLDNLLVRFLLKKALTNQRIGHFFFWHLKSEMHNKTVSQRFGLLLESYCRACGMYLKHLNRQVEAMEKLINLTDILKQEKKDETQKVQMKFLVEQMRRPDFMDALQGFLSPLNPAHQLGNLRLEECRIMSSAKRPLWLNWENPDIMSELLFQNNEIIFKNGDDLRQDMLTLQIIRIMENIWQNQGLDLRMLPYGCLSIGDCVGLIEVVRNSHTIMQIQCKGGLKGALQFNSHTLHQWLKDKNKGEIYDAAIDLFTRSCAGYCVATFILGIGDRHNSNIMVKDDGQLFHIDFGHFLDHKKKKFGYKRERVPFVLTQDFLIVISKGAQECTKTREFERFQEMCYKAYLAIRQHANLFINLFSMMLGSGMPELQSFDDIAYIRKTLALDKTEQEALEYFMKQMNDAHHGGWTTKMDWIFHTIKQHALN

| IC50 (PI3K alpha) [nM] | IC50 (PI3K delta) [nM] | SMILES |
| --- | --- | --- |
| 589 | 5 | Cc1cc(N2CCOc3ccc(O[C@H]4CCN(C(=O)c5ccncc5)C4)cc32)cnc1S(C)(=O)=O [Example B22, {(S)-3-[4-(6-Methanesulfonyl-5-methyl-pyridin-3-yl)-3,4-dihydro-2H-benzo[1,4]oxazin-6-yloxy]-pyrrolidin-1-yl}-pyridin-4-yl-methanone] |
| 1000 | 28 | Cc1cc(N2CCOc3ccc(O[C@H]4CCN(C(=O)c5cncnc5)C4)cc32)cnc1S(C)(=O)=O [Example B23, {(S)-3-[4-(6-Methanesulfonyl-5-methyl-pyridin-3-yl)-3,4-dihydro-2H-benzo[1,4]oxazin-6-yloxy]-pyrrolidin-1-yl}-pyrimidin-5-yl-methanone] |
| 212 | 8 | Cc1cc(N2CCOc3ccc(O[C@H]4CCN(C(=O)c5cocn5)C4)cc32)cnc1S(C)(=O)=O [Example B24, {(S)-3-[4-(6-Methanesulfonyl-5-methyl-pyridin-3-yl)-3,4-dihydro-2H-benzo[1,4]oxazin-6-yloxy]-pyrrolidin-1-yl}-oxazol-4-yl-methanone] |
| 665 | 40 | Cc1cc(N2CCOc3ccc(O[C@H]4CCN(C(=O)c5cnco5)C4)cc32)cnc1S(C)(=O)=O [Example B25, {(S)-3-[4-(6-Methanesulfonyl-5-methyl-pyridin-3-yl)-3,4-dihydro-2H-benzo[1,4]oxazin-6-yloxy]-pyrrolidin-1-yl}-oxazol-5-yl-methanone] |
| 281 | < 9 | Cc1cc(N2CCOc3ccc(O[C@H]4CCN(C(=O)C5CCOC(C)(C)C5)C4)cc32)cnc1S(C)(=O)=O (stereo partly drawn) [Example B26, (2,2-Dimethyl-tetrahydro-pyran-4-yl)-{(S)-3-[4-(6-methanesulfonyl-5-methyl-pyridin-3-yl)-3,4-dihydro-2H-benzo[1,4]oxazin-6-yloxy]-pyrrolidin-1-yl}-methanone] |
| 558 | 41 | CC(C)S(=O)(=O)c1cncc(N2CCOc3ccc(O[C@H]4CCN(C(=O)C5CCS(=O)(=O)CC5)C4)cc32)c1 [Example B29, (1,1-Dioxo-hexahydro-1lambda*6*-thiopyran-4-yl)-((S)-3-{4-[5-(propane-2-sulfonyl)-pyridin-3-yl]-3,4-dihydro-2H-benzo[1,4]oxazin-6-yloxy}-pyrrolidin-1-yl)-methanone] |
| 977 | 3 | Cc1cc(N2CCOc3ccc(O[C@H]4CCN(C(=O)C5CCOC5)C4)cc32)cnc1S(C)(=O)=O (stereo partly drawn) [Example B31, {(S)-3-[4-(6-Methanesulfonyl-5-methyl-pyridin-3-yl)-3,4-dihydro-2H-benzo[1,4]oxazin-6-yloxy]-pyrrolidin-1-yl}-(tetrahydro-furan-3-yl)-methanone] |
| 369 | 36 | COCC(=O)N1CC[C@H](Oc2ccc3c(c2)N(c2cnc(S(C)(=O)=O)c(C)c2)CCO3)C1 [Example B32, 1-{(S)-3-[4-(6-Methanesulfonyl-5-methyl-pyridin-3-yl)-3,4-dihydro-2H-benzo[1,4]oxazin-6-yloxy]-pyrrolidin-1-yl}-2-methoxy-ethanone] |
| 610 | < 9 | Cc1cc(N2CCOc3ccc(O[C@H]4CCN(C(=O)C(C)C)C4)cc32)cnc1S(C)(=O)=O [Example B33, 1-{(S)-3-[4-(6-Methanesulfonyl-5-methyl-pyridin-3-yl)-3,4-dihydro-2H-benzo[1,4]oxazin-6-yloxy]-pyrrolidin-1-yl}-2-methyl-propan-1-one] |
| 795 | 46 | Cc1cc(N2CCOc3ccc(O[C@H]4CCN(C(=O)c5ccccc5)C4)cc32)cnc1S(C)(=O)=O [Example B34, {(S)-3-[4-(6-Methanesulfonyl-5-methyl-pyridin-3-yl)-3,4-dihydro-2H-benzo[1,4]oxazin-6-yloxy]-pyrrolidin-1-yl}-phenyl-methanone] |
| 1390 | 27 | Cc1cc(N2CCOc3ccc(O[C@H]4CCN(C(=O)C5CCS(=O)(=O)C5)C4)cc32)cnc1S(C)(=O)=O (stereo partly drawn) [Example B35, (1,1-Dioxo-tetrahydro-1lambda*6*-thiophen-3-yl)-{(S)-3-[4-(6-methanesulfonyl-5-methyl-pyridin-3-yl)-3,4-dihydro-2H-benzo[1,4]oxazin-6-yloxy]-pyrrolidin-1-yl}-methanone] |
| 801 | < 3 | Cc1cc(N2CCOc3ccc(O[C@H]4CCN(C(=O)C5COCCO5)C4)cc32)cnc1S(C)(=O)=O (stereo partly drawn) [Example B36, [1,4]Dioxan-2-yl-{(S)-3-[4-(6-methanesulfonyl-5-methyl-pyridin-3-yl)-3,4-dihydro-2H-benzo[1,4]oxazin-6-yloxy]-pyrrolidin-1-yl}-methanone] |
| 1100 | 103 | COCCC(=O)N1CC[C@H](Oc2ccc3c(c2)N(c2cnc(S(C)(=O)=O)c(C)c2)CCO3)C1 [Example B37, 1-{(S)-3-[4-(6-Methanesulfonyl-5-methyl-pyridin-3-yl)-3,4-dihydro-2H-benzo[1,4]oxazin-6-yloxy]-pyrrolidin-1-yl}-3-methoxy-propan-1-one] |
| 166 | 3 | COc1cc(N2CCOc3ccc(O[C@H]4CCN(C(=O)C5CCOCC5)C4)cc32)cnc1OC [Example B38, {(S)-3-[4-(5,6-Dimethoxy-pyridin-3-yl)-3,4-dihydro-2H-benzo[1,4]oxazin-6-yloxy]-pyrrolidin-1-yl}-(tetrahydro-pyran-4-yl)-methanone] |
| 176 | 11 | COc1cc(N2CCOc3ccc(O[C@H]4CCN(C(=O)C5COCCO5)C4)cc32)cnc1OC (stereo partly drawn) [Example B39, {(S)-3-[4-(5,6-Dimethoxy-pyridin-3-yl)-3,4-dihydro-2H-benzo[1,4]oxazin-6-yloxy]-pyrrolidin-1-yl}-[1,4]dioxan-2-yl-methanone] |
| 249 | 12 | COc1cc(N2CCOc3ccc(O[C@H]4CCN(C(=O)C5CCOC5)C4)cc32)cnc1OC (stereo partly drawn) [Example B40, {(S)-3-[4-(5,6-Dimethoxy-pyridin-3-yl)-3,4-dihydro-2H-benzo[1,4]oxazin-6-yloxy]-pyrrolidin-1-yl}-(tetrahydro-furan-3-yl)-methanone] |
| 421 | 25 | COc1cc(N2CCOc3ccc(O[C@H]4CCN(C(=O)C5CCS(=O)(=O)C5)C4)cc32)cnc1OC (stereo partly drawn) [Example B41, {(S)-3-[4-(5,6-Dimethoxy-pyridin-3-yl)-3,4-dihydro-2H-benzo[1,4]oxazin-6-yloxy]-pyrrolidin-1-yl}-(1,1-dioxo-tetrahydro-1lambda*6*-thiophen-3-yl)-methanone] |
| 502 | 33 | Cc1cc(N2CCOc3ccc(O[C@H]4CCN(C(=O)C5CCCOC5)C4)cc32)cnc1S(C)(=O)=O (stereo partly drawn) [Example B42, {(S)-3-[4-(6-Methanesulfonyl-5-methyl-pyridin-3-yl)-3,4-dihydro-2H-benzo[1,4]oxazin-6-yloxy]-pyrrolidin-1-yl}-(tetrahydro-pyran-3-yl)-methanone] |
| 514 | 57 | COc1cc(N2CCOc3ccc(O[C@H]4CCN(C(=O)C5CCCOC5)C4)cc32)cnc1OC (stereo partly drawn) [Example B43, {(S)-3-[4-(5,6-Dimethoxy-pyridin-3-yl)-3,4-dihydro-2H-benzo[1,4]oxazin-6-yloxy]-pyrrolidin-1-yl}-(tetrahydro-pyran-3-yl)-methanone] |
